{
  "source": "paper PMC10272271",
  "about": "“MAM-2201 acute administration impairs motor, sensorimotor, prepulse inhibition, and memory functions in mice: a comparison with its analogue AM-2201” (Psychopharmacology, 2023)",
  "format_in_all_cases": "in vivo, mouse",
  "key": {"CD-1 male mice [1]": {"test_system": "CD-1 male mice", "test": "Visual placing response test", "settings": "AM 251 6 mg/kg i.p. before MAM-2201 6 mg/kg", "procedure": "For the overall study 234 mice were used. In sensorimotor (visual object, visual placing, acoustic, and overall tactile responses) tests for MAM-2201, experiments for each treatment dose (vehicle or 5 different MAM-2201 doses, 0.01, 0.1, 1, 3, and 6 mg/kg) used 8 mice (total mice used: 48) and for MAM-2201 with AM-251 pretreatment, experiments for each dose regimen (vehicle + AM-251 or MAM-2201 + AM-251, 6 mg/kg) used 16 mice. In the analysis of spontaneous locomotion (open field test) for MAM-2201, experiments for each treatment regimen (vehicle or 4 different MAM-2201 doses, 0.01, 0.1, 1, and 6 mg/kg) used 10 mice (total mice used: 50). In the PPI test for MAM-2201, experiments for each treatment (vehicle or 3 different MAM-2201 doses, 0.01, 0.1, and 1 mg/kg) used 10 mice (total mice used: 40), while for MAM-2201 experiments in the Novel Object Recognition (NOR) test for each treatment regimen (vehicle or 3 different MAM-2201 and vehicle or 3 different AM-2201 doses, 0.01, 0.1, and 1 mg/kg) used 10 mice (total mice used: 80). […] The voluntary and involuntary motor responses of the animal to different visual, acoustic, and tactile stimuli were evaluated according to the procedure described in our previous studies (Ossato et al. [2015]; Bilel et al. [2020]). To reduce the number of animals used, mice were evaluated in functional observational tests carried out in a consecutive manner according to the following time scheme: observation of visual object responses (frontal and lateral view), acoustic response, tactile response (vibrissae, corneal and pinnae reflexes), and visual placing response. Sensorimotor tests were measured at 10, 30, 60, 120, 180, 240, and 300 min after injections for the evaluation of the visual object, acoustic and the tactile response, and at 15, 45, 75, 135, 195, 255, and 315 min after injections for the evaluation of visual placing response. […] Sensory gating was evaluated by analysis of the pre-pulse inhibition (PPI) of the acoustic startle reflex as previously described (Bilel et al. [2020]). […]"}, "CD-1 male mice [2]": {"test_system": "CD-1 male mice", "test": "Acoustic response test", "settings": "AM 251 6 mg/kg i.p. before MAM-2201 6 mg/kg", "procedure": "For the overall study 234 mice were used. In sensorimotor (visual object, visual placing, acoustic, and overall tactile responses) tests for MAM-2201, experiments for each treatment dose (vehicle or 5 different MAM-2201 doses, 0.01, 0.1, 1, 3, and 6 mg/kg) used 8 mice (total mice used: 48) and for MAM-2201 with AM-251 pretreatment, experiments for each dose regimen (vehicle + AM-251 or MAM-2201 + AM-251, 6 mg/kg) used 16 mice. In the analysis of spontaneous locomotion (open field test) for MAM-2201, experiments for each treatment regimen (vehicle or 4 different MAM-2201 doses, 0.01, 0.1, 1, and 6 mg/kg) used 10 mice (total mice used: 50). In the PPI test for MAM-2201, experiments for each treatment (vehicle or 3 different MAM-2201 doses, 0.01, 0.1, and 1 mg/kg) used 10 mice (total mice used: 40), while for MAM-2201 experiments in the Novel Object Recognition (NOR) test for each treatment regimen (vehicle or 3 different MAM-2201 and vehicle or 3 different AM-2201 doses, 0.01, 0.1, and 1 mg/kg) used 10 mice (total mice used: 80). In the present study the effect of MAM-2201 on sensorimotor responses was investigated using a battery of behavioral tests widely used in studies of “safety-pharmacology,” that we routinely adopted in our laboratory, for the preclinical characterization of new molecules in rodents (Ossato et al. [2015]; Vigolo et al. [2015]; Bilel et al. [2020]). The voluntary and involuntary motor responses of the animal to different visual, acoustic, and tactile stimuli were evaluated according to the procedure described in our previous studies (Ossato et al. [2015]; Bilel et al. [2020]). To reduce the number of animals used, mice were evaluated in functional observational tests carried out in a consecutive manner according to the following time scheme: observation of visual object responses (frontal and lateral view), acoustic response, tactile response (vibrissae, corneal and pinnae reflexes), and visual placing response. Sensorimotor tests were measured at 10, 30, 60, 120, 180, 240, and 300 min after injections for the evaluation of the visual object, acoustic and the tactile response, and at 15, 45, 75, 135, 195, 255, and 315 min after injections for the evaluation of visual placing response. Behavioral tests were conducted in a thermostated (temperature: 20–22 °C, humidity: 45–55%) and light (150 lx) controlled room with a background noise of 40 ± 4 dB. The apparatus for the visual object, acoustic and tactile sensorimotor tests consisted of an experimental chamber (350 × 350 × 350 mm) with black methacrylate walls and a transparent front door. During the week before the experiment, each mouse was placed in the box and handled (once a day) on every other day, i.e., 3 times, to get used to both the environment and the experimenter. To avoid olfactory cues, cages were carefully cleaned with a dilute (5%) ethanol solution and rinsed with water. All experiments were performed between 8:30 AM and 2:00 PM and conducted by trained observers working in pairs who were blinded to the treatment being tested (Ossato et al. [2015]). The behavior of mice was videotaped by a camera (B/W USB Camera day & night with varifocal lens; Ugo Basile, Italy) placed at the top or on one side of the box and analyzed off-line by a different trained operator. […] Sensory gating was evaluated by analysis of the pre-pulse inhibition (PPI) of the acoustic startle reflex as previously described (Bilel et al. [2020]). […]"}, "CD-1 male mice [3]": {"test_system": "CD-1 male mice", "test": "Visual object response test", "settings": "AM 251 6 mg/kg i.p. 20 min before MAM-2201 6 mg/kg", "procedure": "For the overall study 234 mice were used. In sensorimotor (visual object, visual placing, acoustic, and overall tactile responses) tests for MAM-2201, experiments for each treatment dose (vehicle or 5 different MAM-2201 doses, 0.01, 0.1, 1, 3, and 6 mg/kg) used 8 mice (total mice used: 48) and for MAM-2201 with AM-251 pretreatment, experiments for each dose regimen (vehicle + AM-251 or MAM-2201 + AM-251, 6 mg/kg) used 16 mice. In the analysis of spontaneous locomotion (open field test) for MAM-2201, experiments for each treatment regimen (vehicle or 4 different MAM-2201 doses, 0.01, 0.1, 1, and 6 mg/kg) used 10 mice (total mice used: 50). In the PPI test for MAM-2201, experiments for each treatment (vehicle or 3 different MAM-2201 doses, 0.01, 0.1, and 1 mg/kg) used 10 mice (total mice used: 40), while for MAM-2201 experiments in the Novel Object Recognition (NOR) test for each treatment regimen (vehicle or 3 different MAM-2201 and vehicle or 3 different AM-2201 doses, 0.01, 0.1, and 1 mg/kg) used 10 mice (total mice used: 80). In the present study the effect of MAM-2201 on sensorimotor responses was investigated using a battery of behavioral tests widely used in studies of “safety-pharmacology,” that we routinely adopted in our laboratory, for the preclinical characterization of new molecules in rodents (Ossato et al. [2015]; Vigolo et al. [2015]; Bilel et al. [2020]). The voluntary and involuntary motor responses of the animal to different visual, acoustic, and tactile stimuli were evaluated according to the procedure described in our previous studies (Ossato et al. [2015]; Bilel et al. [2020]). To reduce the number of animals used, mice were evaluated in functional observational tests carried out in a consecutive manner according to the following time scheme: observation of visual object responses (frontal and lateral view), acoustic response, tactile response (vibrissae, corneal and pinnae reflexes), and visual placing response. Sensorimotor tests were measured at 10, 30, 60, 120, 180, 240, and 300 min after injections for the evaluation of the visual object, acoustic and the tactile response, and at 15, 45, 75, 135, 195, 255, and 315 min after injections for the evaluation of visual placing response. Behavioral tests were conducted in a thermostated (temperature: 20–22 °C, humidity: 45–55%) and light (150 lx) controlled room with a background noise of 40 ± 4 dB. The apparatus for the visual object, acoustic and tactile sensorimotor tests consisted of an experimental chamber (350 × 350 × 350 mm) with black methacrylate walls and a transparent front door. During the week before the experiment, each mouse was placed in the box and handled (once a day) on every other day, i.e., 3 times, to get used to both the environment and the experimenter. To avoid olfactory cues, cages were carefully cleaned with a dilute (5%) ethanol solution and rinsed with water. All experiments were performed between 8:30 AM and 2:00 PM and conducted by trained observers working in pairs who were blinded to the treatment being tested (Ossato et al. [2015]). The behavior of mice was videotaped by a camera (B/W USB Camera day & night with varifocal lens; Ugo Basile, Italy) placed at the top or on one side of the box and analyzed off-line by a different trained operator. Spontaneous locomotion studies were conducted in a separate set of animals through ANYMAZE test. Sensory gating was evaluated by analysis of the pre-pulse inhibition (PPI) of the acoustic startle reflex as previously described (Bilel et al. [2020]).\nVisual object response test was used to evaluate the ability of the mouse to see an object approaching from the front (frontal view) or the side (lateral view) that typically induces the animal to shift or turn the head, bring the forelimbs in the position of “defense” or retreat from it. For the frontal visual response, a white horizontal bar was moved frontally to the mouse head and the maneuver was repeated 3 times. […]"}, "CD-1 male mice [4]": {"test_system": "CD-1 male mice", "test": "Overall tactile response (vibrissae, corneal, pinnae reflexes)", "settings": "AM 251 6 mg/kg i.p. before MAM-2201 6 mg/kg", "procedure": "For the overall study 234 mice were used. In sensorimotor (visual object, visual placing, acoustic, and overall tactile responses) tests for MAM-2201, experiments for each treatment dose (vehicle or 5 different MAM-2201 doses, 0.01, 0.1, 1, 3, and 6 mg/kg) used 8 mice (total mice used: 48) and for MAM-2201 with AM-251 pretreatment, experiments for each dose regimen (vehicle + AM-251 or MAM-2201 + AM-251, 6 mg/kg) used 16 mice. In the analysis of spontaneous locomotion (open field test) for MAM-2201, experiments for each treatment regimen (vehicle or 4 different MAM-2201 doses, 0.01, 0.1, 1, and 6 mg/kg) used 10 mice (total mice used: 50). In the PPI test for MAM-2201, experiments for each treatment (vehicle or 3 different MAM-2201 doses, 0.01, 0.1, and 1 mg/kg) used 10 mice (total mice used: 40), while for MAM-2201 experiments in the Novel Object Recognition (NOR) test for each treatment regimen (vehicle or 3 different MAM-2201 and vehicle or 3 different AM-2201 doses, 0.01, 0.1, and 1 mg/kg) used 10 mice (total mice used: 80). In the present study the effect of MAM-2201 on sensorimotor responses was investigated using a battery of behavioral tests widely used in studies of “safety-pharmacology,” that we routinely adopted in our laboratory, for the preclinical characterization of new molecules in rodents (Ossato et al. [2015]; Vigolo et al. [2015]; Bilel et al. [2020]). The voluntary and involuntary motor responses of the animal to different visual, acoustic, and tactile stimuli were evaluated according to the procedure described in our previous studies (Ossato et al. [2015]; Bilel et al. [2020]). To reduce the number of animals used, mice were evaluated in functional observational tests carried out in a consecutive manner according to the following time scheme: observation of visual object responses (frontal and lateral view), acoustic response, tactile response (vibrissae, corneal and pinnae reflexes), and visual placing response. Sensorimotor tests were measured at 10, 30, 60, 120, 180, 240, and 300 min after injections for the evaluation of the visual object, acoustic and the tactile response, and at 15, 45, 75, 135, 195, 255, and 315 min after injections for the evaluation of visual placing response. Behavioral tests were conducted in a thermostated (temperature: 20–22 °C, humidity: 45–55%) and light (150 lx) controlled room with a background noise of 40 ± 4 dB. […] The behavior of mice was videotaped by a camera (B/W USB Camera day & night with varifocal lens; Ugo Basile, Italy) placed at the top or on one side of the box and analyzed off-line by a different trained operator. […] Sensory gating was evaluated by analysis of the pre-pulse inhibition (PPI) of the acoustic startle reflex as previously described (Bilel et al. [2020]). […]"}},
  "data": [
    {"smiles": "Cc1c(C(=O)NN2CCCCC2)nn(-c2ccc(Cl)cc2Cl)c1-c1ccc(I)cc1", "note": "[AM 251, 1-(2,4-Dichlorophenyl)-5-(4-iodophenyl)-4-methyl-N-(piperidin-1-yl)-1H-pyrazole-3-carboxamide, reference compound]", "values": [
      {"measurement": "effect of pre-treatment on MAM-2201-induced inhibition of visual placing response", "setting": "CD-1 male mice [1]", "result": "prevented"},
      {"measurement": "effect of pre-treatment on MAM-2201-induced inhibition of acoustic response", "setting": "CD-1 male mice [2]", "result": "prevented"},
      {"measurement": "effect of pre-treatment on MAM-2201-induced inhibition of visual object response", "setting": "CD-1 male mice [3]", "result": "significantly prevented"},
      {"measurement": "effect of pre-treatment on MAM-2201-induced inhibition of overall tactile response", "setting": "CD-1 male mice [4]", "result": "prevented"}
    ]}
  ]
}
